22 molecules from patent US20160257697A1, “THIOPHENE-SUBSTITUTED TETRACYCLIC COMPOUNDS AND METHODS OFUSE THEREOF FOR THE TREATMENT OF VIRAL DISEASES” (priority 2013, published 2016) can be followed below.

Read-outs that look alike come from different tables or passages of the source.

Common to all, as to test: microbe, parasite or virus in culture
Holding throughout (assay type): cell-based, Hepatitis C virus (HCV)
Common to all, as to conditions: Replicon Assay A
(In general: In antiviral work, replicon cells carry a viral genome segment that copies itself.)

Assay [1] deals with HCV replicon 1AY93H. On the procedure:
(§1) To measure cell-based anti-HCV activity of compounds of the present invention, two complimentary assays were employed using various replicons. In the first assay (“Replicon Assay A”), replicon cells were seeded at 2000 cells/well in 384-well 384-well flat bottom tissue culture treated clear bottom plate (Corning 3707) in the presence of the test compound. […] The final concentration of DMSO was 0.5%. Fetal bovine serum was 5%, in the assay media. Cells were harvested on day 3 by removing media and washing the cells with a suitable wash buffer. The cells are lysed with the addition of 1× Qiagen lysis buffer (Cat #1062731). The replicon RNA level was measured using real time PCR (TaqMan® EZ RT-PCR, Applied Biosystems 403028) with the following primers and probes: […]
(§2) Cyclophilin RNA was used as endogenous control and was amplified in the same reaction as NS5B (multiplex PCR). The real-time RT-PCR reactions were run on ABI PRISM 7900HT Sequence Detection System using the following program: 50° C. for 2 minutes, 60° C. for 30 minutes, 95° C. for 5 minutes, 40 cycles of 94° C. for 20 sec, 55° C. for 1 minutes.
(§3) The amount of HCV replicon RNA per cell is quantified using a linear regression curve for a known nanogram (ng) amount of HCV replicon total RNA. This is established by plotting the Cycle Threshold values (Ct) from the Neo probe and primer set versus the log (ng) for each HCV replicon total RNA standard. The amount of HCV RNA for each replicon sample is calculated by taking the sample's Ct value, minus the line intercept, divided by the slope of the line. Similarly, the amount of Cyclophilin mRNA per cell is also quantified using a linear regression curve for a known nanogram (ng) amount of HCV replicon total RNA. Again, this is established by plotting the Cycle Threshold values (Ct) from the Cyclophilin probe and primer set versus the log (ng) for each HCV replicon total RNA standard.
(§4) Data for replicons 1A, 1AY93H and 2B were obtained using Replicon Assay A and data for replicons 1AQ30D and 1B were obtained using Replicon Assay B.

For assay [2], the system named is HCV replicon 1A. On the procedure: as §1, §2, §3, §4
Assay [3] relates to HCV replicon 2B. On the procedure:
as §1, §2, §3, §4

Setting [4] is: read-out: 1A Y93H IC50, replicon 1AY93H.
[5] abbreviates: read-out: 1A Y93H IC50, HCV replicon 1A Y93H.
[6] abbreviates: read-out: 2B IC50, HCV replicon 2B.

The term IC50 denotes the midpoint of a concentration-inhibition curve. For `COC(=O)N[C@H](C(=O)N1C[C@H](F)C[C@@H]1c1ncc(-c2ccc3c(c2)OC(c2cc4ccccc4s2)n2c-3cc3cc(-c4ncc([C@@H]5C[C@@H](F)CN5C(=O)[C@@H](NC(=O)OC)C5CCOCC5)[nH]4)ccc32)[nH]1)C1CCOCC1` (mixture of isomers) [Compound 814], the IC50 came to 0.055 nM in assay [1] (Hepatitis C virus, read-out: 1A Y93H IC50, HCV replicon 1A Y93H) and 0.1 nM in assay [2] (Hepatitis C virus, HCV replicon 1A).
Take `COC(=O)NC(C(=O)N1CCC[C@H]1c1ncc(-c2ccc3c(c2)cc2n3C(c3cc(C)c(C)s3)Oc3cc(-c4cnc([C@@H]5CCCN5C(=O)[C@@H](NC(=O)OC)C(C)C)[nH]4)cc(F)c3-2)[nH]1)C(C)(C)F` (single isomer, unassigned) [Compound 40]: the IC50 in assay [1] (setting [4]) turned out to be 1.12 nM; in assay [2] (replicon 1A) it was 0.002 nM.
For `COC(=O)NC(C(=O)N1CCC[C@H]1c1ncc(-c2ccc3c(c2)cc2n3C(c3cc(C)c(C)s3)Oc3cc(-c4cnc([C@@H]5CCCN5C(=O)[C@@H](NC(=O)OC)C(C)C)[nH]4)cc(F)c3-2)[nH]1)C(C)(C)F` (single isomer, unassigned) [Compound 41], in that order: 2.45 nM and 0.002 nM.
In the same order, the values of `COC(=O)NC(C(=O)N1CCC[C@H]1c1ncc(-c2ccc3c(c2)cc2n3C(c3cc(C)c(C)s3)Oc3cc(-c4cnc([C@@H]5CCCN5C(=O)[C@@H](NC(=O)OC)C(C)C)[nH]4)cc(F)c3-2)[nH]1)C(C)(C)F` (single isomer, unassigned) [Compound 42] are 42.5 nM and 0.0287 nM.
Take `COC(=O)NC(C(=O)N1CCC[C@H]1c1ncc(-c2cc(F)c3c(c2)OC(c2ccc(C4CC4)s2)n2c-3cc3cc(-c4cnc([C@@H]5C[C@H]6C[C@H]6N5C(=O)[C@@H](NC(=O)OC)C(C)C)[nH]4)ccc32)[nH]1)C(C)(C)F` (single isomer, unassigned) [Compound 100]: the IC50 in assay [1] (setting [4]) stood at 8.26 nM; in assay [2] (replicon 1A), 0.0242 nM.
As to `COC(=O)NC(C(=O)N1CCC[C@H]1c1ncc(-c2ccc3c(c2)cc2n3C(c3ccc(C4CC4)s3)Oc3cc(-c4cnc([C@@H]5C[C@@H](F)CN5C(=O)[C@@H](NC(=O)OC)C(C)C)[nH]4)cc(F)c3-2)[nH]1)C(C)(C)F` (single isomer, unassigned) [Compound 113], the values for the IC50 in assay [1] (setting [4]) and in assay [2] (replicon 1A) were 3.92 nM and 0.0428 nM, respectively.
As for `COC(=O)NC(C(=O)N1CCC[C@H]1c1ncc(-c2cc(F)c3c(c2)OC(c2ccc(C4CC4)s2)n2c-3cc3cc(-c4cnc([C@@H]5CCCN5C(=O)[C@@H](NC(=O)OC)C(C)C)[nH]4)ccc32)[nH]1)C1C[C@@H](C)O[C@@H](C)C1` (single isomer, unassigned) [Compound 187], the IC50 in assay [1] (setting [4]) worked out at 14.8 nM; in assay [2] (replicon 1A) it was 0.0664 nM.
Take `CCc1ccc(C2Oc3cc(-c4cnc([C@@H]5CCCN5C(=O)[C@@H](NC(=O)OC)C(C)C)[nH]4)cc(F)c3-c3cc4cc(-c5cnc([C@@H]6C[C@H]7C[C@H]7N6C(=O)C(NC(=O)OC)C6CCOC(C)(C)C6)[nH]5)ccc4n32)s1` (single isomer, unassigned) [Compound 198]: the IC50 in assay [1] (setting [4]) worked out at 14.3 nM; in assay [2] (replicon 1A) it was 0.077 nM.
Turning to `COC(=O)NC(C(=O)N1CCC[C@H]1c1ncc(-c2cc(F)c3c(c2)OC(c2ccc(C4CC4)s2)n2c-3cc3cc(-c4cnc([C@@H]5CCCN5C(=O)[C@@H](NC(=O)OC)C(C)C)[nH]4)ccc32)[nH]1)C1CCOC(C)(C)C1` (single isomer, unassigned) [Compound 213], the IC50 turned out to be 13.6 nM in assay [1] (setting [4]) and 0.0653 nM in assay [2] (replicon 1A).
In the same order, the values of `COC(=O)NC(C(=O)N1CCC[C@H]1c1ncc(-c2ccc3c(c2)cc2n3C(c3ccc(C4CC4)s3)Oc3cc(-c4cnc([C@@H]5CCCN5C(=O)[C@@H](NC(=O)OC)C(C)C)[nH]4)cc(F)c3-2)[nH]1)C1CCOC(C)(C)C1` (single isomer, unassigned) [Compound 224] are 8.88 nM and 0.048 nM.
As to `CCc1ccc(C2Oc3cc(-c4cnc([C@@H]5CCCN5C(=O)[C@@H](NC(=O)OC)C(C)C)[nH]4)cc(F)c3-c3cc4cc(-c5cnc([C@@H]6C[C@@H](F)CN6C(=O)C(NC(=O)OC)C6CCOC(C)(C)C6)[nH]5)ccc4n32)s1` (single isomer, unassigned) [Compound 255], the IC50 in assay [1] (setting [4]) worked out at 0.084 nM; in assay [3] (read-out: 2B IC50, replicon 2B) it was 3.63 nM.
In the case of `CCc1ccc(C2Oc3cc(-c4cnc([C@@H]5CCCN5C(=O)[C@@H](NC(=O)OC)C(C)C)[nH]4)cc(F)c3-c3cc4cc(-c5cnc([C@@H]6C[C@@H](F)CN6C(=O)C(NC(=O)OC)C6CCOC(C)(C)C6)[nH]5)ccc4n32)s1` (single isomer, unassigned) [Compound 256], the IC50 in assay [1] (setting [4]) was 16.9 nM; in assay [2] (replicon 1A), 0.117 nM.
For `CCc1ccc(C2Oc3cc(-c4cnc([C@@H]5CCCN5C(=O)[C@@H](NC(=O)OC)C(C)C)[nH]4)cc(F)c3-c3cc4cc(-c5cnc([C@@H]6C[C@@H](F)CN6C(=O)C(NC(=O)OC)C6CCOC(C)(C)C6)[nH]5)ccc4n32)s1` (single isomer, unassigned) [Compound 257], in that order: 9.38 nM and 0.0924 nM.
Regarding `COC(=O)NC(C(=O)N1CCC[C@H]1c1ncc(-c2ccc3c(c2)cc2n3C(c3ccc(C(F)F)s3)Oc3cc(-c4cnc([C@@H]5CCCN5C(=O)[C@@H](NC(=O)OC)C(C)C)[nH]4)cc(F)c3-2)[nH]1)C1C[C@@H](C)O[C@@H](C)C1` (single isomer, unassigned) [Compound 265], the IC50 amounted to 0.16 nM in assay [1] (setting [4]) and 0.25 nM in assay [3] (read-out: 2B IC50, replicon 2B).
For `COC(=O)NC(C(=O)N1[C@@H]2C[C@@H]2C[C@H]1c1ncc(-c2ccc3c(c2)cc2n3C(c3ccc(C4CC4)s3)Oc3cc(-c4cnc([C@@H]5CCCN5C(=O)[C@@H](NC(=O)OC)C(C)C)[nH]4)cc(F)c3-2)[nH]1)C1C[C@@H](C)O[C@@H](C)C1` (single isomer, unassigned) [Compound 274], the values for the IC50 in assay [1] (setting [4]) and in assay [2] (replicon 1A) were 7.87 nM and 0.022 nM, respectively.
Consider `COC(=O)NC(C(=O)N1[C@@H]2C[C@@H]2C[C@H]1c1ncc(-c2ccc3c(c2)cc2n3C(c3ccc(C4CC4)s3)Oc3cc(-c4cnc([C@@H]5CCCN5C(=O)[C@@H](NC(=O)OC)C(C)C)[nH]4)cc(F)c3-2)[nH]1)C1CCOC(C)(C)C1` (single isomer, unassigned) [Compound 277], for which the IC50 in assay [1] (setting [4]) came to 0.13 nM; in assay [3] (read-out: 2B IC50, replicon 2B), 0.58 nM.
Take `COC(=O)NC(C(=O)N1[C@@H]2C[C@@H]2C[C@H]1c1ncc(-c2ccc3c(c2)cc2n3C(c3ccc(C(C)C)s3)Oc3cc(-c4cnc([C@@H]5CCCN5C(=O)[C@@H](NC(=O)OC)C(C)C)[nH]4)cc(F)c3-2)[nH]1)C1C[C@@H](C)O[C@@H](C)C1` (single isomer, unassigned) [Compound 283]: the IC50 in assay [1] (Hepatitis C virus, read-out: 1A Y93H IC50 (nM), replicon 1AY93H) stood at 0.192 nM; in assay [3] (Hepatitis C virus, read-out: 2B IC50 (nM), replicon 2B), 0.68 nM.
In the case of `COC(=O)NC(C(=O)N1CCC[C@H]1c1ncc(-c2ccc3c(c2)cc2n3C(c3ccc(C4CC4)s3)Oc3cc(-c4cnc([C@@H]5CCCN5C(=O)[C@@H](NC(=O)OC)C(C)C)[nH]4)cc(F)c3-2)[nH]1)C1CCCCO1` (single isomer, unassigned) [Compound 341], the half-maximal inhibitory concentration (IC50) came to 0.52 nM in assay [1] (setting [4]) and 1.24 nM in assay [3] (read-out: 2B IC50, replicon 2B).
In the case of `COC(=O)N[C@H](C(=O)N1CCC[C@H]1c1ncc(-c2cc(F)c3c(c2)OC(c2cc(C)c(C)s2)n2c-3cc3cc(-c4cnc([C@@H]5C[C@H]6C[C@H]6N5C(=O)[C@@H](NC(=O)OC)C(C)C)[nH]4)ccc32)[nH]1)C(C)C` (single isomer, unassigned) [Compound 507], the results for the IC50 in assay [1] (setting [5]) and in assay [3] (setting [6]) were 0.0896 nM and 1.88 nM, respectively.
In the same order, the values of `COC(=O)N[C@H](C(=O)N1CCC[C@H]1c1ncc(-c2cc(F)c3c(c2)OC(c2cc(C)c(C)s2)n2c-3cc3cc(-c4cnc([C@@H]5C[C@H]6C[C@H]6N5C(=O)[C@@H](NC(=O)OC)C(C)C)[nH]4)ccc32)[nH]1)C(C)C` (single isomer, unassigned) [Compound 509] are 6.12 nM and 6.82 nM.
In the same order, the values of `COC(=O)N[C@H](C(=O)N1CCC[C@H]1c1ncc(-c2cc(F)c3c(c2)OC(c2scc4c2OCCO4)n2c-3cc3cc(-c4cnc([C@@H]5CCCN5C(=O)[C@@H](NC(=O)OC)C(C)C)[nH]4)ccc32)[nH]1)C(C)C` (single isomer, unassigned) [Compound 525] are 15.1 nM and 3.14 nM.
In the same order, the values of `CCc1ccc(C2Oc3cc(-c4cnc([C@@H]5CCCN5C(=O)[C@@H](NC(=O)OC)C(C)C)[nH]4)ccc3-c3c(F)c4cc(-c5cnc([C@@H]6CCCN6C(=O)[C@@H](NC(=O)OC)C(C)C)[nH]5)ccc4n32)s1` (single isomer, unassigned) [Compound 601] are 4 nM and 1.24 nM.
